According to patent publication US9586951B2 (FUJIFILM Corporation, priority 2013, dated 2017):

These compounds were tested against T1, ATM (Homo sapiens, UniProt Q13315) (assay: ATM inhibition test (phosphorylation of Chk2 generated by ionizing radiation, AlphaScreen SureFire)). Conditions: phosphorylated Chk2 in NCI-H460 cells, ionizing radiation 8Gy, 1 hour after test compound treatment; read-out: ATM inhibitory activity.
T1 construct: detecting phosphorylation of Chk2 in a human non-small cell lung cancer cell line NCI-H460 (ATCC company); host or cells: NCI-H460 human non-small cell lung cancer cells
T1 sequence (Q13315 whole entry): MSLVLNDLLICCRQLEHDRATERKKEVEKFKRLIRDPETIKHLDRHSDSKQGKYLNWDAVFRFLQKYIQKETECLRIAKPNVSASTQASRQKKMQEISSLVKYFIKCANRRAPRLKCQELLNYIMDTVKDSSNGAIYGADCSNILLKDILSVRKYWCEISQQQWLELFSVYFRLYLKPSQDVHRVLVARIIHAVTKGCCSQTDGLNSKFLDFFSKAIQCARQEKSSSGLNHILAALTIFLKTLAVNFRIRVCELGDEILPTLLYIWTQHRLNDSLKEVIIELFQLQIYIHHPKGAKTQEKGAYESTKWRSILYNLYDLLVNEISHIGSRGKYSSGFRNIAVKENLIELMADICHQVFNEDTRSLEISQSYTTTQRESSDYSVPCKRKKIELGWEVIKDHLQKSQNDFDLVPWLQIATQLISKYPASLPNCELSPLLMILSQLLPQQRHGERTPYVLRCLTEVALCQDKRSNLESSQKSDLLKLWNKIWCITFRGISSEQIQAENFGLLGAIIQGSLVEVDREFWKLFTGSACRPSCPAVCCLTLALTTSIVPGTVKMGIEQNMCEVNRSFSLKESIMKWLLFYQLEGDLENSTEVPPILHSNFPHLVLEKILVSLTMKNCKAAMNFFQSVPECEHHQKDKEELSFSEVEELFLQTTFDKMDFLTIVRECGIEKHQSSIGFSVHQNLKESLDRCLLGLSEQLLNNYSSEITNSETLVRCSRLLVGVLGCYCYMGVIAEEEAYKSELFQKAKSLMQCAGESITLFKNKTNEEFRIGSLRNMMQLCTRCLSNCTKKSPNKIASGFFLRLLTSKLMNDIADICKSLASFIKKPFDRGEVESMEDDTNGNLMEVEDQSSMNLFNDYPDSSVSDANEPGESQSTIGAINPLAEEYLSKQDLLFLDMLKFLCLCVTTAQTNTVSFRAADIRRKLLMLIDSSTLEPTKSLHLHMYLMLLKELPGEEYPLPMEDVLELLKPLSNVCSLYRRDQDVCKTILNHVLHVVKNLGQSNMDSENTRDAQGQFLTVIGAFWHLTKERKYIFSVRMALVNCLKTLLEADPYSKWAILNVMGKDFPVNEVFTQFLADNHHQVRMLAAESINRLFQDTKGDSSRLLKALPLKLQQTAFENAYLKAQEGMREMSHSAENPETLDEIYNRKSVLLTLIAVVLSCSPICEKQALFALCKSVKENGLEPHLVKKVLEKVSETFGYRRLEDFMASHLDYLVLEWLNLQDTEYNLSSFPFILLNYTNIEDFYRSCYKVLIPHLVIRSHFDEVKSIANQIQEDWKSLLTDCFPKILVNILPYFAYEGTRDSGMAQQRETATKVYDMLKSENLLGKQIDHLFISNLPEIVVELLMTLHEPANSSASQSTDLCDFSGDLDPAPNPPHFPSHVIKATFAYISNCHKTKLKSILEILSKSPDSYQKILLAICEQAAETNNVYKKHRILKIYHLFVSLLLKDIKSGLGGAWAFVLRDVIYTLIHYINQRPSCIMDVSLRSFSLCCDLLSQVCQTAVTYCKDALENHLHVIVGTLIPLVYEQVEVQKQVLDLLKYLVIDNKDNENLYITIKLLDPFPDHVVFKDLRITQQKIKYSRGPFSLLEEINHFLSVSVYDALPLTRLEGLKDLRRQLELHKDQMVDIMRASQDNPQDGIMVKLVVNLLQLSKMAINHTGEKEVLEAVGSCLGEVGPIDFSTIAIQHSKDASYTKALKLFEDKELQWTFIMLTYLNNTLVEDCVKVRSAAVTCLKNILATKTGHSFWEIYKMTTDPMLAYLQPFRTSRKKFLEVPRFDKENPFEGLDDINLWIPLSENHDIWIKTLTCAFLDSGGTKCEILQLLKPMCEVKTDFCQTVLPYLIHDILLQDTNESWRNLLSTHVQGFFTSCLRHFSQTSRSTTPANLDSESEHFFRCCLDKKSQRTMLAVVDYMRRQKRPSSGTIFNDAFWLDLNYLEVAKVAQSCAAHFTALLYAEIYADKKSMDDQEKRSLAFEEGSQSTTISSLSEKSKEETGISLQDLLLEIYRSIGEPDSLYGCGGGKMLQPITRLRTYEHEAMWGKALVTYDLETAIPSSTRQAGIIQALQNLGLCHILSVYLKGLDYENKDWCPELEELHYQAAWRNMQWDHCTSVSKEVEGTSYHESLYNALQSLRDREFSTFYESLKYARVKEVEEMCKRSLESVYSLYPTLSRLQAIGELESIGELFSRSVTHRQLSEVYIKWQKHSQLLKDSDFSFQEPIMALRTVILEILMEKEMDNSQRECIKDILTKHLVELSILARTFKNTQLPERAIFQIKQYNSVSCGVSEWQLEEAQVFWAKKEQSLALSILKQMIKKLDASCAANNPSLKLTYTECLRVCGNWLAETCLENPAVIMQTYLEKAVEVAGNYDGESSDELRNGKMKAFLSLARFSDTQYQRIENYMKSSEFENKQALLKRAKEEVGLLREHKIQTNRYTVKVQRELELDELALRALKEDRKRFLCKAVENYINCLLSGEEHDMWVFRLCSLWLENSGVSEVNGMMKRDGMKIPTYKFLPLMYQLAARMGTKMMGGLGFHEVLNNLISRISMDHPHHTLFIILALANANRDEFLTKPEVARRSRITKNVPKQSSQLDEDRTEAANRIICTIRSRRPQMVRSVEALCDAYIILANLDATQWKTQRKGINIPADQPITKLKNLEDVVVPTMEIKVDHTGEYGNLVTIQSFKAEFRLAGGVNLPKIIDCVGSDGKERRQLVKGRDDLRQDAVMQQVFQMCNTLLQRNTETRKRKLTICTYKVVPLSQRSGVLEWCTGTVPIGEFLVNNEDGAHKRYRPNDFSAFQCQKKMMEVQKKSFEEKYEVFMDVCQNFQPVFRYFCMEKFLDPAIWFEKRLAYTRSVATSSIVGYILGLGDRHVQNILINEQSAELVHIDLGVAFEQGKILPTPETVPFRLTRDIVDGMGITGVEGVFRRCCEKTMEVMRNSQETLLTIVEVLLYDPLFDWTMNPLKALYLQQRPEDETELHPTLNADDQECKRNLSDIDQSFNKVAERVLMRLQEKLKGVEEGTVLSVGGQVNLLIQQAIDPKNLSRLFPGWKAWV
Format: cell-based
Outline: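 In NCI-H460 cells, radiation-triggered Chk2 phosphorylation (8Gy, 1 h) is detected by AlphaScreen SureFire following 1 h compound exposure.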

IC50 [nM]	Compound
100 to 500	Cc1csc(CNc2ccc3c(c2)Sc2cccc(-c4cc(N5CCOCC5)cc(=O)[nH]4)c2S3)c1 [Example 1-12-58, 6-(7-(((4-Methylthiophen-2-yl)methyl)amino)thianthren-1-yl)-4-morpholino pyridin-2 (1H)-one]
500 to 2000	Cc1ccsc1CNc1ccc2c(c1)Sc1cccc(-c3cc(N4CCOCC4)cc(=O)[nH]3)c1S2 [Example 1-12-59, 6-(7-(((3-Methylthiophen-2-yl)methyl)amino)thianthren-1-yl)-4-morpholino pyridin-2 (1H)-one]
100 to 500	Cc1cncc(CNc2ccc3c(c2)Sc2cccc(-c4cc(N5CCOCC5)cc(=O)[nH]4)c2S3)n1 [Example 1-12-60, 6-(7-(((6-Methylpyrazin-2-yl)methyl)amino)thianthren-1-yl)-4-morpholino pyridin-2(1H)-one]
100 to 500	Cc1nccnc1CNc1ccc2c(c1)Sc1cccc(-c3cc(N4CCOCC4)cc(=O)[nH]3)c1S2 [Example 1-12-61, 6-(7-(((3-Methylpyrazin-2-yl)methyl)amino)thianthren-1-yl)-4-morpholino pyridin-2 (1H)-one]
100 to 500	Cc1cncc(C(CO)Nc2ccc3c(c2)Sc2cccc(-c4cc(N5CCOCC5)cc(=O)[nH]4)c2S3)c1 (stereo not shown) [Example 1-12-66, 6-(7-((2-Hydroxy-1-(5-methylpyridin-3-yl)ethyl)amino)thianthren-1-yl)-4-morpholino pyridin-2(1H)-one]
100 to 500	CC(Nc1ccc2c(c1)Sc1cccc(-c3cc(N4CCOCC4)cc(=O)[nH]3)c1S2)c1nccs1 (stereo not shown) [Example 1-12-67, 4-Morpholino-6-(7-((1-(thiazol-2-yl)ethyl)amino)thianthren-1-yl)pyridin-2 (1H)-one]
100 to 500	CC(Nc1ccc2c(c1)Sc1cccc(-c3cc(N4CCOCC4)cc(=O)[nH]3)c1S2)c1ncccn1 (stereo not shown) [Example 1-12-68, 4-Morpholino-6-(7-((1-(pyrimidin-2-yl)ethyl)amino)thianthren-1-yl)pyridin-2 (1H)-one]
500 to 2000	O=c1cc(N2CCOCC2)cc(-c2cccc3c2Sc2ccc(NC4CCCCC4Cl)cc2S3)[nH]1 (stereo not shown) [Example 1-12-72, 6-(7-((2-Chlorocyclohexyl)amino)thianthren-1-yl)-4-morpholino pyridin-2(1H)-one]
100 to 500	CC(Nc1ccc2c(c1)Sc1cccc(-c3cc(N4CCOCC4)cc(=O)[nH]3)c1S2)c1ccncn1 (stereo not shown) [Example 1-12-74, 4-Morpholino-6-(7-((1-(pyrimidin-4-yl)ethyl)amino)thianthren-1-yl)pyridin-2 (1H)-one]
100 to 500	COc1ncc(C(C)Nc2ccc3c(c2)Sc2cccc(-c4cc(N5CCOCC5)cc(=O)[nH]4)c2S3)cn1 (stereo not shown) [Example 1-12-76]
100 to 500	COc1cncc(C(C)Nc2ccc3c(c2)Sc2cccc(-c4cc(N5CCOCC5)cc(=O)[nH]4)c2S3)n1 (stereo not shown) [Example 1-12-78, 6-(7-((1-(6-Methoxypyrazin-2-yl)ethyl)amino)thianthren-1-yl)-4-morpholino pyridin-2 (1H)-one]
100 to 500	COc1cncc(C(CO)Nc2ccc3c(c2)Sc2cccc(-c4cc(N5CCOCC5)cc(=O)[nH]4)c2S3)n1 (stereo not shown) [Example 1-12-79, 6-(7-((2-Hydroxy-1-(6-methoxypyrazin-2-yl)ethyl)amino)thianthren-1-yl)-4-morpholino pyridin-2(1H)-one]
100 to 500	Cc1nccc(C(C)Nc2ccc3c(c2)Sc2cccc(-c4cc(N5CCOCC5)cc(=O)[nH]4)c2S3)n1 (stereo not shown) [Example 1-12-80, 6-(7-((1-(2-Methylpyrimidin-4-yl)ethyl)amino)thianthren-1-yl)-4-morpholino pyridin-2(1H)-one]
100 to 500	CC(Nc1ccc2c(c1)Sc1cccc(-c3cc(N4CCOCC4)cc(=O)[nH]3)c1S2)c1ccnc(Cl)n1 (stereo not shown) [Example 1-12-81, 6-(7-((1-(2-Chloropyrimidin-4-yl)ethyl)amino)thianthren-1-yl)-4-morpholino pyridin-2 (1H)-one]
100 to 500	CC(Nc1ccc2c(c1)Sc1cccc(-c3cc(N4CCOCC4)cc(=O)[nH]3)c1S2)c1ccnc(C#N)n1 (stereo not shown) [Example 1-12-82, 4-(1-((6-(4-Morpholino-6-oxo-1,6-dihydropyridin-2-yl)thianthren-2-yl)amino)ethyl) pyrimidine-2-carbonitrile]
100 to 500	CC(Nc1ccc2c(c1)Sc1cccc(-c3cc(N4CCOCC4)cc(=O)[nH]3)c1S2)c1cc(Cl)ncn1 (stereo not shown) [Example 1-12-83, 6-(7-((1-(6-Chloropyrimidin-4-yl)ethyl)amino)thianthren-1-yl)-4-morpholino pyridin-2 (1H)-one]
100 to 500	CC(Nc1ccc2c(c1)Sc1cccc(-c3cc(N4CCOCC4)cc(=O)[nH]3)c1S2)c1cc(C#N)ncn1 (stereo not shown) [Example 1-12-84, 6-(1-((6-(4-Morpholino-6-oxo-1,6-dihydropyridin-2-yl)thianthren-2-yl)amino)ethyl)pyrimidine-4-carbonitrile]
100 to 500	CC(Nc1ccc2c(c1)Sc1cccc(-c3cc(N4CCOCC4)cc(=O)[nH]3)c1S2)c1nccc(CO)n1 (stereo not shown) [Example 1-12-86, 6-(7-((1-(4-(Hydroxymethyl)pyrimidin-2-yl)ethyl)amino)thianthren-1-yl)-4-morpholino pyridin-2(1H)-one]
100 to 500	COc1nccc(C(C)Nc2ccc3c(c2)Sc2cccc(-c4cc(N5CCOCC5)cc(=O)[nH]4)c2S3)n1 (stereo not shown) [Example 1-12-88, 6-(7-((1-(2-Methoxypyrimidin-4-yl)ethyl)amino)thianthren-1-yl)-4-morpholino pyridin-2(1H)-one]
100 to 500	CC(Nc1ccc2c(c1)Sc1cccc(-c3cc(N4CCOCC4)cc(=O)[nH]3)c1S2)c1ncc(CO)cn1 (stereo not shown) [Example 1-12-92, 6-(7-((1-(5-(Hydroxymethyl)pyrimidin-2-yl)ethyl)amino)thianthren-1-yl)-4-morpholino pyridin-2(1H)-one]
100 to 500	CC(Nc1ccc2c(c1)Sc1cccc(-c3cc(N4CCOCC4)cc(=O)[nH]3)c1S2)c1ncc(CN2CCCC2)cn1 (stereo not shown) [Example 1-12-94, 4-Morpholino-6-(7-((1-(5-(pyrrolidin-1-ylmethyl)pyrimidin-2-yl)ethyl)amino)thianthren-1-yl)pyridin-2 (1H)-one]
100 to 500	Cc1ccc(C(CO)Nc2ccc3c(c2)Sc2cccc(-c4cc(N5CCOCC5)cc(=O)[nH]4)c2S3)nc1 (stereo not shown) [Example 1-12-99, 6-(7-((2-Hydroxy-1-(5-methylpyridin-2-yl)ethyl)amino)thianthren-1-yl)-4-morpholino pyridin-2(1H)-one]
100 to 500	CCOCC(Nc1ccc2c(c1)Sc1cccc(-c3cc(N4CCOCC4)cc(=O)[nH]3)c1S2)c1ccc(C)cn1 (stereo not shown) [Example 1-12-101, 6-(7-((2-Ethoxy-1-(5-methylpyridin-2-yl)ethyl)amino)thianthren-1-yl)-4-morpholino pyridin-2(1H)-one]
100 to 500	Cc1cnc(C(COCCN(C)C)Nc2ccc3c(c2)Sc2cccc(-c4cc(N5CCOCC5)cc(=O)[nH]4)c2S3)nc1 (stereo not shown) [Example 1-12-104, 6-(7-((2-(2-(Dimethylamino)ethoxy)-1-(5-methylpyrimidin-2-yl)ethyl)amino)thianthren-1-yl)-4-morpholino pyridin-2(1H)-one]
100 to 500	CCN(CC)CC(Nc1ccc2c(c1)Sc1cccc(-c3cc(N4CCOCC4)cc(=O)[nH]3)c1S2)c1ncc(C)cn1 (stereo not shown) [Example 1-12-106, 6-(7-((2-(Diethylamino)-1-(5-methylpyrimidin-2-yl)ethyl)amino)thianthren-1-yl)-4-morpholino pyridin-2(1H)-one]
